Results from EPA's ToxValDB 9.5 (doi:10.2903/j.efsa.2017.4887).
In brackets after ≈: the same amount, converted by molar mass.

Legend:
Folsomia candida = settings: chronic/long-term; duration: 28 days; reproduction
Pleurozium sp. = settings: acute; duration: 72 hours; growth
Oncorhynchus mykiss = settings: acute; duration: 96 hours; mortality
Anas platyrhynchos = settings: reproductive
Apis mellifera = settings: acute, mortality
Argyrosomus sp. = settings: acute; duration: 96 hours; mortality
Bibionidae = settings: chronic/long-term; duration: 28 days; other
Colinus virginianus = settings: acute; oral; mortality
Cyprinodon variegatus = settings: chronic/long-term; duration: 100 days; reproduction
Hypoaspis aculeifer = settings: chronic/long-term; reproduction
Aphidius rhopalosiphi = experiment: LR50; higher = less toxic; settings: not reported; mortality

| SMILES | NOEC (Folsomia candida) [mg/kg] | NOEC (Pleurozium sp.) [mg/L] | LC50 (Oncorhynchus mykiss) [µg/mL] | NOAEL (Anas platyrhynchos) [mg/kg-day] | LD50 (Apis mellifera; dermal) [µg/piece] | LD50 (Apis mellifera; oral, unspecified) [µg/piece] | LC50 (Argyrosomus sp.) [µg/mL] | NOEC (Bibionidae) [mg/L] | LD50 (Colinus virginianus) [mg/kg-day] | NOEC (Cyprinodon variegatus) [mg/L] | NOEC (Hypoaspis aculeifer) [mg/kg] | LC50 (Neomysis kadiakensis; acute, duration: 96 hours, mortality) [µg/mL] | NOEC (Neomysis kadiakensis; chronic/long-term, duration: 28 days, reproduction) [mg/L] | LD50 (Rattus norvegicus; acute, oral, mortality) [mg/kg-day] | NOAEL (Rattus norvegicus; chronic, duration: 2 years, organ weight) [mg/kg-day] | NOAEL (Rattus norvegicus; developmental, development) [mg/kg-day] | NOAEL (Rattus norvegicus; reproduction developmental, histopathology: nonneoplastic) [mg/kg-day] | LR50 (Aphidius rhopalosiphi) [g/ha] |
| --- | --- | --- | --- | --- | --- | --- | --- | --- | --- | --- | --- | --- | --- | --- | --- | --- | --- | --- |
| O=C(O)[C@H]1CO[C@@](Cn2cncn2)(c2ccc(Cl)cc2Cl)O1 (racemic) | 1000 | 112 | – | – | – | – | – | – | – | – | – | – | – | – | – | – | – | – |
| O=C(O)[C@@H]1CO[C@@](Cn2cncn2)(c2ccc(Cl)cc2Cl)O1 (racemic) | 1000 | – | > 100 | – | – | – | – | – | – | – | – | – | – | – | – | – | – | – |
| CCCC1COC(Cn2cncn2)(c2ccc(Cl)cc2Cl)O1 (centres undefined) [Propiconazole] | – | – | – | 25.5 | 46.3 | 203 | 2.6 (≈ 7.6 µM) | 4 | ≥ 2510 | 0.068 | 22.4 | 0.51 (≈ 1.49 µM) | 0.114 | 550 | 3.6 | 30 | 8.4 | > 250 |
